Counter-ions that a name gives are not always drawn.
Legend:
cats = experiment: Effect on heart rate in cats; assay type: in vivo, cat; details: anesthetized cats, 1.0 mg/kg i.v.; for Half-life: heart rate effect
Experimental: The cats were anesthetized with Nembutal (30 mg/kg i.p.) and chloralose urethane (40 mg/ml of chloralose+200 mg/ml of urethane, as required). The compound to be tested was injected in aqueous solution into the vena saphena or into the duodenum. The heart rate was recorded before and after the admiministration of the substance by means of a Grass tachograph from the electrocardiagram (taken from and chest wall) on a Grass polygraph.

rats = experiment: Effect on heart rate in rats; assay type: in vivo, rat; details: anesthetized rats
Experimental: The effect of the test substances on heart rate was investigated in two rats with an average weight of 250 to 300 gm for each dose. The rats were anesthetized with pentobarbital (50 mg/kg i.p. and 20 mg/kg s.c.). The test substances were injected in aqueous solution into the jugular vein (0.1 ml/100 gm). The blood pressure was measured using a cannula inserted in a carotid artery and the heart rate was recorded from an ECG (IInd or IIIrd reading) obtained using needle electrodes. The heart rate of the animals in the control period was between 350 and 400 beats per minute (b/min).

Acute toxicity in mice = details: mouse, in vivo, observation period 14 days
Experimental: The acute toxicity of the test compound was determined in mice (observationperiod: 14 days) after intravenous and peroral administration: […]

Row | Structure (SMILES) | Reduction in Heart Rate (cats) [%] | Half-life (cats) [h] | Reduction in Heart Rate (20 Minutes) After Application of the Compound (rats; 5.0 mg/kg i.v.) [Beats/Minutes] | Reduction in Heart Rate (20 Minutes) After Application of the Compound (rats; 1.0 mg/kg i.v.) [Beats/Minutes] | Reduction in Heart Rate (20 Minutes) After Application of the Compound (rats; 2.5 mg/kg i.v.) [Beats/Minutes] | also measured
1 | COc1ccc(CCN(C)CCCN2CCc3cc(OC)c(OC)cc3C(=O)C2=O)cc1OC [C, 1-[7,8-Dimethoxy-1,3,4,5-tetrahydro-2H-3-benzazepine-1,2-dion-3-yl]-3-[N-methyl-(2-}3,4-dimethoxy-phenyl}-ethyl)-amino]-propane hydrochloride] | -44 | 1.5 | – | – | – | –
2 | COc1cc2c(cc1OC)CC(=O)N(CCCN(C)CCc1cc(Cl)c(N)c(Cl)c1)CC2 [F, 1-[7,8-Dimethoxy-1,3,4,5-tetrahydro-2H-3-benzazepin-2-on-3-yl]-3-[N-methyl-N-(2-{4-amino-3,5-dichloro-phenyl}-ethyl)-amino]-propane] | -51 | 2 | – | – | – | –
3 | COc1ccc(CCNCCCN2CCc3cc(OC)c(OC)cc3CC2=O)cc1OC.Cl [E, 1-[7,8-Dimethoxy-1,3,4,5-tetrahydro-2H-3-benzazepin-2-on-3-yl]-3-[N-(2-{3,4-dimethoxy-phenyl}-ethyl)-amino]-propane hydrochloride] | -45 | 1.5 | – | – | – | –
4 | COc1ccc(CCN(C)CCCN2CCc3cc(OC)c(OC)cc3NC2=O)cc1OC [D, 1-[7,8-Dimethoxy-1,3,4,5-tetrahydro-2H-1,3-benzodiazepin-2-on-3-yl]-3-[N-methyl-(2-{3,4-dimethoxy-phenyl}-ethyl)-amino]-propane] | -41 | 1.33 | – | – | – | –
5 | COc1cc2c(cc1OC)CC(=O)N(CCCN(C)CCCc1cc(Cl)c(N)c(Cl)c1)CC2 [T, 1-[7,8-Dimethoxy-1,3,4,5-tetrahydro-2H-3-benzazepin-2-on-3-yl]-3-[N-methyl-N-(3-{4-amino-3,5-dichlorophenyl}-propyl)-amino]-propane] | – | – | -175 | – | – | –
6 | COc1cc2c(cc1OC)CC(=O)N(CCCN(C)CCc1ccccc1)CC2.Cl.Cl [R, 1-[7,8-Dimethoxy-1,3,4,5-tetrahydro-2H-3-benzazepin-2-on-3-yl]-3-[N-methyl-N-(2-phenyl-ethyl)-amino]-propane dihydrochloride] | – | – | -135 | -80 | -110 | –
7 | COc1ccc(CCN(C)CCCN2CCc3cc(OC)c(OC)cc3C(O)C2=O)cc1OC (stereo not shown) [O] | – | – | -117 | -83 | -73 | –
8 | COc1cc(CCCCCN(C)CCCN2CCc3cc(OC)c(OC)cc3CC2=O)cc(OC)c1 [S, 1-[7,8-Dimethoxy-1,3,4,5-tetrahydro-2H-3-benzazepin-2-on-3-yl]-3-[N-methyl-N-(5-{3,5-dimethoxy-phenyl}-pentyl)-amino]-propane] | – | – | -18 | – | – | –
9 | COc1ccc(CCN(C)CCCN2C=Cc3cc(OC)c(OC)cc3CC2=O)cc1OC.Cl [B, 1-[7,8-Dimethoxy-1,3-dihydro-2H-3-benzazepin-2-on-3-yl]-3-[N-methyl-N-(2-{3,4-dimethoxy-phenyl}-ethyl)-amino]-propane hydrochloride] | -45 | 2 | – | – | – | –
10 | COc1ccc(CCN(C)CCCN2CCc3cc(OC)c(OC)cc3CC2=S)cc1OC [M, 1-[7,8-Dimethoxy-1,3,4,5-tetrahydro-2H-3-benzazepin-2-thion-3-yl]-N-[N-methyl-N-(2-{3,4-dimethoxy-phenyl}-ethyl)-amino]-propane] | – | – | -255 | -73 | -134 | –
11 | COc1cc2c(cc1OC)CC(=O)N(CCCN(C)CCCCc1ccc(N(C)C)cc1)CC2 [Q, 1-[7,8-Dimethoxy-1,3,4,5-tatrahydro-2H-3-benzazepin-2-on-3-yl]-3-N-methyl-N-(4-{4-dimethylaino-phenyl}butyl)-amino]-propane hydrobromide] | – | – | -123 | -94 | -91 | –
12 | COc1ccc(CCN(C)CCCN2CCc3cc(OC)c(OC)cc3CC2=O)cc1OC.Cl.Cl [A, 1-[7,8-Dimethoxy-1,3,4,5-tetrahydro-2H-3-benzazepin-2-on-3-yl]-3-[N-methyl-N-(2-{3,4-dimethoxy-phenyl}-ethyl)-amino]-propane dihydrochloride] | -55 | 2 | – | – | – | LD50 at 336 h (Acute toxicity in mice; iv): 89 mg/kg; LD50 at 336 h (Acute toxicity in mice; po): 1350 mg/kg
13 | COc1ccc(C(O)CN(C)CCCN2CCc3cc(OC)c(OC)cc3CC2=O)cc1OC (stereo not shown) [N, 1-[7,8-Dimethoxy-1,3,4,5-tetrahydro-2H-3-benzazepin-2-on-3-yl]-3-[N-methyl-N-(2-hydroxy-2-{3,4-dimethoxyphenyl}-ethyl)-amino]-propane] | – | – | -173 | – | -137 | –
14 | COc1ccc(CCN(C)CCCN2CCCc3cc(OC)c(OC)cc3C2=O)cc1OC [U, 1-[7,8-Dimethoxy-1,3,4,5-tetrahydro-5H-2-benzazepin-1-on-2-yl]-3-[N-methyl-N-(2-{3,4-dimethoxy-phenyl}-ethyl)-amino]-propane hydrochloride, reference compound] | -8.2 | 0.217 | -18 | – | – | –
15 | COc1ccc(CCCN(C)CCCN2CCc3cc(OC)c(OC)cc3CC2=O)cc1OC.Cl [L, 1-[7,8-Dimethoxy-1,3,4,5-tetrahydro-2H-3-benzazepin-2-on-3-yl]-3-[N-methyl-N-(3-{3,4-dimethoxy-phenyl}-propyl)-amino]-propane hydrochloride] | – | – | -183 | -51 | -85 | –
16 | COc1cc2c(cc1OC)CC(=O)N(CCCN(C)CCc1ccc(N)c([N+](=O)[O-])c1)CC2 [P, 1-[7,8-Dimethoxy-1,3,4,5-tetrahydro-2H-3-benzazepin-2-on-3-yl]-3-[N-methyl-N-(2-{4-aino-3-nitro-phenyl}-ethyl)-amino]-propane hydrochloride] | – | – | -130 | – | – | –
